Results: patent US5914313A, “1-[4-hydroxy-5-aminoethyloxy-N^2 -(10,12-dimethyl-1-oxotetradecyl)ornithine]-5-(3-hydroxyglutamine)-6-(3- hydroxyproline)echinocandin B, other aminoalkyl derivatives and salts thereof” (Merck & Co., Inc., priority 1993, dated 1999)

Assays:
Candida albicans MY 1055 [1] = experiment: Minimum fungicidal concentration (MFC), microbroth dilution assay in YNBD; format: cell-based; details: YNBD medium; MFC = lowest concentration showing no growth or less than 4 colonies per spot
Excerpt: (§1) The compounds of the present invention are active against many fungi and as previously indicated particularly against Candida species. The antifungal properties may be illustrated with the minimum fungicidal concentration (MFC) determination against certain Candida organisms in a microbroth dilution assay carried out in a Yeast Nitrogen Base (Difco) medium with 1 percent dextrose (YNBD).
(§2) In carrying out the assay, Compound I was solubilized in 10 percent dimethyl sulfoxide (DMSO) and diluted to 2560 μg/ml. The compound was then diluted to 256 μg/ml in YNBD. 0.15 mL of the suspension was dispensed to the top row of a 96-well plate (each well containing 0.15 ml of YNBD) resulting in a drug concentration of 128 μg/ml. Two-fold dilutions were then made from the top row to obtain final drug concentrations ranging from 128 to 0.06 μg/ml.
(§3) The yeast cultures, maintained on Sabouraud dextrose agar were transferred to YN broth (Difco) and incubated overnight at 35° C. with shaking (250 rpm). After incubation, each culture was diluted in sterile water to yield a final concentration of 1-5×10^6 colony forming units (CFU)/ml.
(§4) 96-well microplates were inoculated using a MIC-2000 (Dynatech) which delivers […] per well yielding a final inoculum per well of 1.5-7.5×10^3 cells. The microplates were incubated at 35° C. for 24 hours. The minimum inhibitory concentrations (MICs) were recorded as the lowest concentrations of drug showing no visible growth.
(§5) After recording the MIC, the plates were shaken to resuspend the cells. Thereafter, 1.5 μl samples from the wells in the 96-well microplate were transferred to a single well tray containing Sabouraud dextrose agar. The inoculated trays were incubated 24 hours at 28° C. and then read for minimum fungicidal concentration (MFC). MFC is defined as the lowest concentration of drug showing no growth or less than 4 colonies per spot.

[2] = system: Candida tropicalis MY 1012; experiment: as above; format: cell-based; details: YNBD medium; MFC = lowest concentration showing no growth or less than 4 colonies per spot
Excerpt: as §1, §2, §3, §4, §5

Candida albicans MY 1055 [3] = experiment: In vivo effectiveness: recoverable Candida CFU in kidneys of infected mice; details: 0.4 mg/kg I.P. twice daily for four consecutive days; DBA/2 mice; kidneys after seven days
Procedure: Growth from an overnight SDA culture of Candida albicans MY 1055 was suspended in sterile saline and the cell concentration determined by hemacytometer count and the cell suspension adjusted to 3.75×10^5 cells/ml. Then 0.2 milliliter of this suspension was administered I.V. in the tail vein of mice so that the final inoculum was 7.5×10^4 cells/mouse.
The assay then was carried out by administering aqueous solutions of Compound I (R1 =--CH2 CH2 NH2) at various concentrations intraperitoneally (I.P.), twice daily (b.i.d.) for four consecutive days to 18 to 20 gram female DBA/2 mice, which previously had been infected with Candida albicans (MY 1055) in the manner described above. Distilled water was administered I.P. to C. albicans challenged mice as controls. After seven days, the mice were sacrificed by carbon dioxide gas, paired kidneys were removed aseptically and placed in sterile polyethylene bags containing 5 milliters of sterile saline. The kidneys were homogenized in the bags, serially diluted in sterile saline and aliquots spread on the surface of SDA plates. The plates were incubated at 35° C. for 48 hours and yeast colonies were enumerated for determination of colony forming units (CFU) per-gram of kidneys.

Candida albicans MY 1750 = experiment: Minimum fungicidal concentration (MFC), separate similar experiment; format: cell-based
Excerpt: as §1
as §2, with “0.06 μg/ml. […]” for “0.06 μg/ml.”
96-well microplates were inoculated using a MIC-2000 (Dynatech) which delivers […] per well yielding a final inoculum per well of 1.5-7.5×10^3 cells. […] The minimum inhibitory concentrations (MICs) were recorded as the lowest concentrations of drug showing no visible growth.
After recording the MIC, the plates were shaken to resuspend the cells. […] The inoculated trays were incubated 24 hours at 28° C. and then read for minimum fungicidal concentration (MFC). […]

human blood cells = experiment: Red blood cell lysis, minimum lytic concentration (MLC); format: cell-based; details: 2 hours at room temperature, lowest concentration giving complete or partial lysis, tested 400 to 0.20 μg/ml
Excerpt: A harmful and potentially fatal side reaction of a number of drugs including certain antibiotically active echinocandin compounds is red blood cell lysis. […] The blood cell lysis property may be seen in the determination carried out in the following manner.
The blood employed is a 4 percent suspension of freshly drawn heparinized blood prepared by adding 2 milliliters of blood to 50 milliliters of sterile 5 percent dextrose.
Compoufid I was solubilized in a small volume of dimethylsulfoxide (DMSO) that was then diluted with distilled water to a final concentration of 5 percent DMSO to obtain a drug solution of 4.0 mg/ml. A 0.2 milliliter amount of the drug solution was added to 1.4 milliliters of sterile 5 percent dextrose to obtain the test solution. A diluent control was also prepared.
A 96-well microtiter plate with a well volume of 0.35 ml was used for the assay. Columns 2-12 were filled with 150 µl of sterile 5 percent dextrose. Then, 300 μl of test solutions were dispensed into the wells in column 1 and serially two-fold diluted in 5 percent dextrose to yield final test concentrations of from 400 to 0.20 μg/ml. 38 μl of red blood cell suspension were added to each well, the plate was gently agitated to mix the well contents and incubated at room temperature for 2 hours, and thereafter observed to determine extent of hemolysis as indicated by complete or partial clearing (lysis).

Pneumocystis carinii = Pneumocystis carinii pneumonia in immunosuppressed rats, reduction of cysts; format: in vivo, Sprague-Dawley rats; details: subcutaneous, twice daily for four days
Procedure: The compounds of the present invention may also be useful for inhibiting or alleviating Pneumocvstis carinii infections in immune compromised patients. […] Before drug treatment, two rats are sacrificed to confirm the presence of Pneumocystis carinii pneumonia (PCP). Five rats (weighing approximately 150 grams) are injected twice daily for four days subcutaneously (sc) with Compound I in 0.25 ml of vehicle (distilled water). A vehicle control is also carried out. All animals continue to receive dexasone in the drinking water and low protein diet during the treatment period. At the completion of the treatment, all animals are sacrificed, the lungs are removed and processed, and the extent of disease determined by microscopic examination of stained slides for the presence of cysts.
The dosage required for 90 percent reduction of cysts with representative compounds may be seen in the following table: […]

Row | Substance | MFC C. albicans MY 1055 (Candida albicans MY 1055 [1]) [µg/mL] | MFC C. tropicalis MY 1012 [2] [µg/mL] | reduction of recoverable Candida CFUs (kidneys) (Candida albicans MY 1055 [3]) | MFC C. albicans MY 1750 (Candida albicans MY 1750) [µg/mL] | MLC (minimum lytic concentration) (human blood cells) [µg/mL] | dosage required for 90 percent reduction of cysts (Pneumocystis carinii) [mg/kg]
1 | 1-[4-hydroxy-5-aminoethyloxy-N^2 -(10,12-dimethyl-1-oxotetradecyl)ornithine]-5-(3-hydroxyglutamine)-6-(3-hydroxyproline) echinocandin B trifluoroacetate [--CH2 CH2 NH2 / DMTD] | 0.125 | 0.25 | greater than 99% | – | – | –
2 | Glycylaminoethyloxy Ether as the Trifluoroacetate [--CH2 CH2 NHCOCH2 NH2 / DMTD] | 1.0 | 0.5 | – | 0.50 | > 400 | 0.04
